Laboratory results as given in patent publication US20180127374A1, “BE[…] AS OPIOID RECEPTORS MODULATORS” (Purdue Pharma L.P., priority 2012, published 2018).
Where two headings read alike, the source gives them in different places.

Tests used:
[1] = target: T1, δ opioid receptor (Homo sapiens, UniProt P41143); assay: δ-opioid receptor [35S]GTPγS functional assay; format: biochemical; design: purchased Perkin Elmer, Shelton, Conn; conditions: for Emax: relative to the effect elicited by met-enkephalin; for EC50: δ membrane protein
Protocol: (§1) Functional [^35S]GTPγS binding assays were conducted as follows. δ opioid receptor membrane solution was prepared by sequentially adding final concentrations of 0.026 μg/μl δ membrane protein (Perkin Elmer, Shelton, Conn.), 10 μg/mL saponin, 3 μM GDP and 0.20 nM [^35S]GTPγS to binding buffer (100 mM NaCl, 10 mM MgCl2, 20 mM HEPES, pH 7.4) on ice. The prepared membrane solution (190 μl/well) was transferred to 96-shallow well polypropylene plates containing 100 of 20× concentrated stock solutions of agonist prepared in DMSO. Plates were incubated for 30 min at a temperature of about 25° C. with shaking.
δ GTP EC50 is the concentration of a compound providing 50% of the maximal response for the compound at a δ receptor.
δ GTP Emax (%) is the maximal effect elicited by a compound relative to the effect elicited by met-enkephalin. […] In another embodiment, the Compounds of the Invention will have a δ GTP Emax (%) of about 100% or greater.

[2] = target: T2, μ-opioid receptor (Homo sapiens, UniProt P35372); assay: μ-opioid receptor [35S]GTPγS functional assay; format: biochemical; design: purchased Perkin Elmer, Shelton, Conn; conditions: for Emax: relative to the effect elicited by DAMGO; for EC50: μ-receptor membranes, read-out: GTPγS μ EC50
Protocol: [^35S]GTPγS functional assays were conducted using freshly thawed μ-receptor membranes (Perkin Elmer, Shelton, Conn.). Assay reactions were prepared by sequentially adding the following reagents to binding buffer (100 mM NaCl, 10 mM MgCl2, 20 mM HEPES, pH 7.4) on ice (final concentrations indicated): membrane protein (0.026 mg/mL), saponin ([…]), GDP ([…]) and [^35S]GTPγS (0.20 nM; Perkin Elmer, Shelton, Conn.). The prepared membrane solution (190 μl/well) was transferred to 96-shallow well polypropylene plates containing 10 μI of 20× concentrated stock solutions of the agonist [D-Ala^e, N-methyl-Phe^4 Gly-ol^5]-enkephalin (DAMGO) prepared in dimethyl sulfoxide (DMSO). Plates were incubated for 30 min at about 25° C. with shaking. […] Data were analyzed using the sigmoidal dose-response curve fitting functions in GraphPad PRISM v. 3.0, or an in-house function for non-linear, sigmoidal dose-response curve-fitting.
μ GTP EC50 is the concentration of a compound providing 50% of the maximal response for the compound at a μ-opioid receptor.
μ GTP Emax (%) is the maximal effect elicited by a compound relative to the effect elicited by DAMGO, a standard μ agonist. Generally, the μ GTP Emax (%) value measures the efficacy of a compound to treat or prevent pain or other Conditions.
Target sequence in this assay (P35372 whole entry, species assumed): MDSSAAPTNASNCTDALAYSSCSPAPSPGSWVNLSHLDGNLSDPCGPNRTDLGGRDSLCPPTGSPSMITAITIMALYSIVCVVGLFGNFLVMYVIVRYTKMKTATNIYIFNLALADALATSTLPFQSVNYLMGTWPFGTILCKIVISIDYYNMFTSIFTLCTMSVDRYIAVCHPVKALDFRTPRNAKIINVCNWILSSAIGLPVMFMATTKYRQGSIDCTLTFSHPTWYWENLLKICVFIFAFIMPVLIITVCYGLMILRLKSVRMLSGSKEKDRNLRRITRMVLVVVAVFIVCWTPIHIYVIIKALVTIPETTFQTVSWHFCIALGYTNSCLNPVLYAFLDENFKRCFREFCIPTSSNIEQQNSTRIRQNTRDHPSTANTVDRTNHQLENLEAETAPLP

[3] = target: T1, δ opioid receptor; assay: δ-opioid receptor radioligand dose-displacement binding assay
Protocol: δ-opioid Receptor Binding Assay Procedures were conducted as follows. Radioligand dose-displacement assays used 0.3 nM [^3H]-Naltrindole (Perkin Elmer, Shelton, Conn.; 33.0 Ci/mmole) with 5 μg membrane protein (Perkin Elmer, Shelton, Conn.) in a final volume of 500 μl binding buffer (5 mM MgCl2, 5% DMSO, 50 mM Trizma base, pH 7.4). Non-specific binding was determined in the presence of 25 μM unlabeled naloxone. All reactions were performed in 96-deep well polypropylene plates for 1 hr at a temperature of about 25° C. Binding reactions were terminated by rapid filtration onto 96-well Unifilter GF/C filter plates (Perkin Elmer, Shelton, Conn.) presoaked in 0.5% polyethylenimine (Sigma). Harvesting was performed using a 96-well tissue harvester (Perkin Elmer, Shelton, Conn.) followed by five filtration washes with 500 μl ice-cold binding buffer. Filter plates were subsequently dried at 50° C. for 1-2 hours. Fifty μl/well scintillation cocktail (Perkin Elmer, Shelton, Conn.) was added and plates were counted in a Packard Top-Count for 1 min/well.

[4] = target: T2, μ-opioid receptor; assay: μ-opioid receptor radioligand dose-displacement binding assay
Protocol: Radioligand dose-displacement binding assays for μ-opioid receptors used 0.3 nM [^3H]-diprenorphine (Perkin Elmer, Shelton, Conn.), with […] membrane protein/well in a final volume of […] binding buffer (10 mM MgCl2, 1 mM EDTA, 5% DMSO, 50 mM HEPES, pH 7.4). Reactions were carried out in the absence or presence of increasing concentrations of unlabeled naloxone. All reactions were conducted in 96-deep well polypropylene plates for 2 hr at room temperature. […] The data were analyzed using the one-site competition curve fitting functions in GraphPad PRISM™ v. 3.0 or higher (San Diego, Calif.), or an in-house function for one-site competition curve-fitting.
Target sequence in this assay (P35372 whole entry): as the sequence (P35372 whole entry, species assumed) above

[5] = target: T3, κ opioid receptor (Homo sapiens, UniProt P41145); assay: κ-opioid receptor radioligand dose displacement binding assay; design: expressed in transfected cells; host or cells: HEK-293
Protocol: Membranes from recombinant HEK-293 cells expressing the human κ opioid receptor (κ) (cloned in house) were prepared by lysing cells in ice cold hypotonic buffer (2.5 mM MgCl2, 50 mM HEPES, pH 7.4) (10 mL/10 cm dish) followed by homogenization with a tissue grinder/Teflon pestle. Membranes were collected by centrifugation at 30,000×g for 15 min at 4° C. and pellets were resuspended in hypotonic buffer to a final concentration of 1-3 mg/mL. Protein concentrations were determined using the BioRad protein assay reagent with bovine serum albumen as standard. Aliquots of κ receptor membranes were stored at […]

[6] = target: T3, κ opioid receptor; assay: κ-opioid receptor [35S]GTPγS functional assay; format: biochemical; design: expressed in transfected cells; conditions: for Emax: relative to the effect elicited by U69,593
Protocol: as §1, with “follows. κ” for “follows. δ”, “μg/μl κ” for “μg/μl δ”, “protein (in-house),” for “protein (Perkin Elmer, Shelton, Conn.),”, “containing 10 μl” for “containing 100”
κ GTP EC50 is the concentration of a compound providing 50% of the maximal response for the compound at a κ receptor.
κ GTP Emax (%) is the maximal effect elicited by a compound relative to the effect elicited by U69,593.

[7] = [3H]-diprenorphine displacement, read-out: Ki (nM) Opioid Receptor μ
[8] = [3H]-U69,593 displacement, HEK-293 membranes, read-out: Ki (nM) Opioid Receptor κ
[9] = κ membrane protein (in-house), read-out: GTPγS κ EC50

T1 sequence (P41143 whole entry): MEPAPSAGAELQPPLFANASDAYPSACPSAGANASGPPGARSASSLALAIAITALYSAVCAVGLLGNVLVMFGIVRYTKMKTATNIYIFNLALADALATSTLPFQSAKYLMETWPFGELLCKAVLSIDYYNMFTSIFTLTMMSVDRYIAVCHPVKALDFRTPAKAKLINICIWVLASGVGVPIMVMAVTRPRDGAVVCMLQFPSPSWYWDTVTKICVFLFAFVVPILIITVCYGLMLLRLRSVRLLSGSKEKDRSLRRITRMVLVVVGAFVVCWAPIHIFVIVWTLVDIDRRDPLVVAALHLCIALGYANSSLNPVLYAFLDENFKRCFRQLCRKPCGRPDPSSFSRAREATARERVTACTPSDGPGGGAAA
T3 sequence (P41145 whole entry): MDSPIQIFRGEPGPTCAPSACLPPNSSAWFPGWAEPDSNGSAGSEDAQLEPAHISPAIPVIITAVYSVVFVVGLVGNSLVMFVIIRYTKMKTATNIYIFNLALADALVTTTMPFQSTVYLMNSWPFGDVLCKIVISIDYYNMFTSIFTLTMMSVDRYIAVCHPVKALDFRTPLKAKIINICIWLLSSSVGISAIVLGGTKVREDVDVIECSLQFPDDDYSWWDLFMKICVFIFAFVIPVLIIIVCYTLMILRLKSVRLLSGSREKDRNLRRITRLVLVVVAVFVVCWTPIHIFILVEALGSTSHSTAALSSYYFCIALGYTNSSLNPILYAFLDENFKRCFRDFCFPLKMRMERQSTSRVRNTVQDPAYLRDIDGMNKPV

| Structure (SMILES) | Emax [1] [%] | EC50 [1] [nM] | Emax [2] [%] | EC50 [2] [nM] | Ki [3] [nM] | Ki [4, 7] [nM] | Ki [5, 8] [nM] | Emax [6] [%] | EC50 [6, 9] [nM] | Ki [4] [nM] | Ki [5] [nM] | EC50 [6] [nM] |
| --- | --- | --- | --- | --- | --- | --- | --- | --- | --- | --- | --- | --- |
| COc1ccc2c(c1)[C@@]1(CCCc3ccco3)CCN(CC3CC3)C(C2)C1C (stereo in doubt) [Compound 15, (2R,6S,11S)-3-(cyclopropylmethyl)-6-(3-(furan-2-yl)propyl)-8-methoxy-11-methyl-1,2,3,4,5,6-hexahydro-2,6-methanobenzo[d]azocine] | 67 | 143 | 34.6 | 303 | 736 ± 196 | 389 ± 90.2 | 2.11 ± 0.22 | 82.3 | 104 | – | – | – |
| COc1ccc2c(c1)[C@@]1(CCCCNCC(C)C)CCN(CC3CC3)C(C2)[C@@H]1C [Compound 9, 4-((6S,11R)-3-(cyclopropylmethyl)-8-methoxy-11-methyl-1,2,3,4,5,6-hexahydro-2,6-methanobenzo[d]azocin-6-yl)-N-isobutylbutan-1-amine] | – | – | 60 | 643 | – | 448 ± 113 | 1.35 ± 0.57 | 103 | 58.1 | – | – | – |
| COc1ccc2c(c1)[C@@]1(CCCCOCc3ccccc3)CCN(CC3CC3)C(C2)[C@@H]1C [Compound 12, (6S,11R)-6-(4-(benzyloxy)butyl)-3-(cyclopropylmethyl)-8-methoxy-11-methyl-1,2,3,4,5,6-hexahydro-2,6-methanobenzo[d]azocine] | – | – | 30.8 | 580 | – | 166 ± 51.8 | 0.27 ± 0.01 | 97.7 | 14.4 | – | – | – |
| COc1ccc2c(c1)[C@@]1(CCCCO)CCN(CC3CC3)C(C2)[C@@H]1C [Compound 13, 4-((6S,11R)-3-(cyclopropylmethyl)-8-methoxy-11-methyl-1,2,3,4,5,6-hexahydro-2,6-methanobenzo[d]azocin-6-yl)butan-1-ol] | – | – | – | – | 16200 ± 3050 | – | – | 71.3 | – | 3420 ± 763 | 7.15 ± 0.86 | 296 |
| COc1ccc2c(c1)[C@@]1(CCCC(=O)N[C@@H](C)C(N)=O)CCN(CC3CC3)C(C2)[C@@H]1C [Compound 14, N—((S)-1-amino-1-oxopropan-2-yl)-4-((6S,11R)-3-(cyclopropylmethyl)-8-methoxy-11-methyl-1,2,3,4,5,6-hexahydro-2,6-methanobenzo[d]azocin-6-yl)butanamide] | – | – | 64 | 1300 | – | 4270 ± 1360 | 44 ± 17.7 | 63 | 1050 | – | – | – |
| C[C@H]1[C@H]2Cc3ccc(O)cc3[C@]1(CCOc1cncc(C(=O)O)c1)CCN2CC1CC1 [Compound 16, 5-(2-((2R,6S,11R)-3-(cyclopropylmethyl)-8-hydroxy-11-methyl-1,2,3,4,5,6-hexahydro-2,6-methanobenzo[d]azocin-6-yl)ethoxy)nicotinic acid] | 37.8 | 2.48 | 26 | 8.95 | 62.5 ± 11 | 6.85 ± 1.48 | 12.6 ± 2.11 | 60.7 | 67.9 | – | – | – |
| CC(C)N1CC[C@@]2(CCCC(N)=O)c3cc(O)ccc3C[C@@H]1[C@@H]2C [Compound 17, 4-((2R,6R,11R)-8-hydroxy-3-isopropyl-11-methyl-1,2,3,4,5,6-hexahydro-2,6-methanobenzo[d]azocin-6-yl)butanamide] | – | – | 38 | 68.2 | – | 165 ± 6.97 | 5 ± 0.53 | 60.7 | 107 | – | – | – |
| CC(C)CN1CC[C@@]2(CCCC(N)=O)c3cc(O)ccc3C[C@@H]1[C@@H]2C [Compound 18, 4-((2R,6R,11R)-8-hydroxy-3-isobutyl-11-methyl-1,2,3,4,5,6-hexahydro-2,6-methanobenzo[d]azocin-6-yl)butanamide] | 74.3 | 81 | 25.3 | 9.12 | 155 ± 44.7 | 19.8 ± 0.68 | 0.51 ± 0.05 | 43 | 7.14 | – | – | – |
| C[C@H]1[C@H]2Cc3ccc(O)cc3[C@]1(CCCC(N)=O)CCN2CC1CC1 [Compound 20, 4-((2R,6R,11R)-3-(cyclopropylmethyl)-8-hydroxy-11-methyl-1,2,3,4,5,6-hexahydro-2,6-methanobenzo[d]azocin-6-yl)butanamide] | – | – | 19 | 3.18 | – | 5.38 ± 0.43 | 0.08 ± 0.01 | 58.2 | 6 | – | – | – |
| C[C@H](NC(=O)CCC[C@]12CCN(CC3CC3)[C@H](Cc3ccc(O)cc31)[C@@H]2C)C(N)=O [Compound 22, N—((S)-1-amino-1-oxopropan-2-yl)-4-((2R,6R,11R)-3-(cyclopropylmethyl)-8-hydroxy-11-methyl-1,2,3,4,5,6-hexahydro-2,6-methanobenzo[d]azocin-6-yl)butanamide] | – | – | 22.3 | 0.7 | – | 6.33 ± 1.54 | 0.41 ± 0.08 | 53.3 | 13.2 | – | – | – |
| COC(=O)c1cccc(C(=O)NCC[C@]23CCN(CC4CC4)[C@H](Cc4ccc(OC)cc42)[C@@H]3C)c1 [Compound 26, methyl 3-((2-((2R,6R,11R)-3-(cyclopropylmethyl)-8-methoxy-11-methyl-1,2,3,4,5,6-hexahydro-2,6-methanobenzo[d]azocin-6-yl)ethyl)carbamoyl)benzoate] | – | – | 95 | 46.1 | – | 158 ± 44.3 | 0.51 ± 0.07 | 105 | 15.3 | – | – | – |
